Results reported in ChEMBL document CHEMBL2331514, “Structure-based design and synthesis of novel pseudosaccharine derivatives as antiproliferative agents and kinase inhibitors” (Eur J Med Chem, 2013).

Tests used:
Assay type in all cases: functional
SNB-75 = assay: Cytotoxicity against human SNB75 cells assessed as growth inhibition at 10 uM after 48 hrs by SRB assay; conditions: SNB-75, 48 h, read-out: GI
NCI-H322M = assay: Cytotoxicity against human NCI-H322M cells assessed as growth inhibition at 10 uM after 48 hrs by SRB assay; conditions: read-out: GI
NCI-H522 = assay: Cytotoxicity against human NCI-H522 cells assessed as growth inhibition at 10 uM after 48 hrs by SRB assay; conditions: NCI-H522, 48 h, read-out: GI
SF-295 = assay: Cytotoxicity against human SF295 cells assessed as growth inhibition at 10 uM after 48 hrs by SRB assay; conditions: SF-295, 48 h, read-out: GI
CCRF-CEM = assay: Cytotoxicity against human CCRF-CEM cells assessed as growth inhibition at 10 uM after 48 hrs by SRB assay; conditions: read-out: GI
Hs-578T = assay: Cytotoxicity against human Hs578T cells assessed as growth inhibition at 10 uM after 48 hrs by SRB assay; conditions: read-out: GI
A549 = assay: Cytotoxicity against human A549/ATCC cells assessed as growth inhibition at 10 uM after 48 hrs by SRB assay; conditions: A549, 48 h, read-out: GI
SW-620 = assay: Cytotoxicity against human SW620 cells assessed as growth inhibition at 10 uM after 48 hrs by SRB assay; conditions: SW-620, 48 h, read-out: GI
SN12C = assay: Cytotoxicity against human SN12C cells assessed as growth inhibition at 10 uM after 48 hrs by SRB assay; conditions: read-out: GI
SNB-19 = assay: Cytotoxicity against human SNB19 cells assessed as growth inhibition at 10 uM after 48 hrs by SRB assay; conditions: SNB-19, 48 h, read-out: GI
SK-OV-3 = assay: Cytotoxicity against human SKOV3 cells assessed as growth inhibition at 10 uM after 48 hrs by SRB assay; conditions: SK-OV-3, 48 h, read-out: GI
SR = assay: Cytotoxicity against human SR cells assessed as growth inhibition at 10 uM after 48 hrs by SRB assay; conditions: read-out: GI
NCI-H23 = assay: Cytotoxicity against human NCI-H23 cells assessed as growth inhibition at 10 uM after 48 hrs by SRB assay; conditions: NCI-H23, 48 h, read-out: GI
NCI-H460 = assay: Cytotoxicity against human NCI-H460 cells assessed as growth inhibition at 10 uM after 48 hrs by SRB assay; conditions: NCI-H460, 48 h, read-out: GI
U-251 = assay: Cytotoxicity against human U251 cells assessed as growth inhibition at 10 uM after 48 hrs by SRB assay; conditions: U-251, 48 h, read-out: GI
HT-29 = assay: Cytotoxicity against human HT-29 cells assessed as growth inhibition at 10 uM after 48 hrs by SRB assay; conditions: HT-29, 48 h, read-out: GI
TK-10 = assay: Cytotoxicity against human TK10 cells assessed as growth inhibition at 10 uM after 48 hrs by SRB assay; conditions: TK-10, 48 h, read-out: GI
SK-MEL-2 = assay: Cytotoxicity against human SK-MEL-2 cells assessed as growth inhibition at 10 uM after 48 hrs by SRB assay; conditions: SK-MEL-2, 48 h, read-out: GI
KM12 = assay: Cytotoxicity against human KM12 cells assessed as growth inhibition at 10 uM after 48 hrs by SRB assay; conditions: KM12, 48 h, read-out: GI
RPMI-8226 = assay: Cytotoxicity against human RPMI8226 cells assessed as growth inhibition at 10 uM after 48 hrs by SRB assay; conditions: RPMI-8226, 48 h, read-out: GI
MDA-MB-468 = assay: Cytotoxicity against human MDA-MB-468 cells assessed as growth inhibition at 10 uM after 48 hrs by SRB assay; conditions: MDA-MB-468, 48 h, read-out: GI

Row | Compound | inhibition of growth at 10 µM (SNB-75) | inhibition of growth at 10 µM (NCI-H322M) | inhibition of growth at 10 µM (NCI-H522) | inhibition of growth at 10 µM (SF-295) | inhibition of growth at 10 µM (CCRF-CEM) | inhibition of growth at 10 µM (Hs-578T) | inhibition of growth at 10 µM (A549) | inhibition of growth at 10 µM (SW-620) | inhibition of growth at 10 µM (SN12C) | inhibition of growth at 10 µM (SNB-19) | inhibition of growth at 10 µM (SK-OV-3) | inhibition of growth at 10 µM (SR) | inhibition of growth at 10 µM (NCI-H23) | inhibition of growth at 10 µM (NCI-H460) | inhibition of growth at 10 µM (U-251) | inhibition of growth at 10 µM (HT-29) | inhibition of growth at 10 µM (TK-10) | inhibition of growth at 10 µM (SK-MEL-2) | inhibition of growth at 10 µM (KM12) | inhibition of growth at 10 µM (RPMI-8226) | other results
1 | Cc1ccc(NC2=NS(=O)(=O)c3ccc(NC(=O)CCC(=O)O)cc32)cc1 | 21% | 2% | -8% | 1% | 2% | -2% | -7% | 1% | 6% | 1% | -11% | -5% | 1% | -7% | 0% | -3% | -16% | -6% | -13% | 7% | inhibition of growth at 10 µM (MDA-MB-468): -6%
2 | COc1ccc(NC(=O)Nc2ccc(NC3=NS(=O)(=O)c4ccccc43)cc2)cc1 | 1% | 0% | 0% | 18% | 14% | -4% | -10% | -6% | 5% | -6% | -20% | 11% | 8% | 1% | 14% | 17% | -4% | -4% | -1% | 4% | inhibition of growth at 10 µM (MDA-MB-468): -7%
3 | O=C(Nc1ccccc1)Nc1ccc(OC2=NS(=O)(=O)c3ccccc32)cc1 | 22% | 5% | 21% | 32% | 41% | 13% | 22% | 2% | 18% | -1% | -13% | 36% | 6% | 21% | 21% | 52% | -7% | -2% | 58% | 36% | inhibition of growth at 10 µM (MDA-MB-468): 20%
4 | O=C(Nc1ccc(NC2=NS(=O)(=O)c3ccccc32)cc1)Nc1cccc(Br)c1 | 15% | 29% | 14% | 20% | 39% | 35% | 4% | -2% | 21% | 19% | 4% | 27% | 14% | 1% | 39% | 11% | -2% | 1% | 88% | 8% | inhibition of growth at 10 µM (MDA-MB-468): 60%
